Laboratory results as given in patent US9358276B2, “Methods of diagnosing and treating small intestinal bacterial overgrowth (SIBO) and SIBO-related conditions” (Cedars-Sinai Medical Center, priority 1999, dated 2016).
Marks after values point to notes of the source that are not given here.

Legend:
[1] = system: SIBO-related hyperalgesia; assay: Treatment of SIBO-related hyperalgesia (cases); format: in vivo, human
Experimental: Two adult female subjects with IBS required additional pharmacologic manipulations to treat their SIBO-related hyperalgesia. In the first case, SIBO was eradicated by antibiotic treatment. However, the subject complained of persistent feelings of rectal distension, consistent with residual hyperalgesia related to SIBO. The subjected was then administered Colpermin (peppermint oil) capsules and Elavil (5 mg taken at night) that alleviated their SIBO-related hyperalgesic symptoms, presumably by reducing intestinal wall tension and decreasing mechanoreceptor activation.
The second subject with a diagnosis of IBS was also found to have SIBO, as detected by LBHT. Their SIBO was eradicated by a combined treatment with antibiotic, intestinal lavage with Go-Lytely, and cisapride (10 mg tid) to increase their abnormally low phase III interdigestive motility. After eradication of SIBO, this subject similarly complained of persistent SIBO-related hyperalgesic symptoms of the bowel.

upper gut transit [2] = assay: Upper gut transit time by lactulose breath hydrogen test after oleate or oleic acid; format: in vivo, human; settings: 4 grams of oleic acid
[3] = system: rapid upper gut transit and diarrhea; assay: Continued pre-meal oleate/oleic acid treatment: diarrhea, stool output, symptoms; format: in vivo, human
Description: Continuing oleic acid treatment at home was offered to Aresponders≅ (i.e., patients who experienced a greater than 100% increase in baseline transit time with 3.2 g oleic acid). Of the 36 responders out of the original 45 patients, 18 provided records of stool volume and frequency on- and off-treatment for comparison. The inconvenient and unappealing nature of stool collection and measurement were the primary reasons reported by responders who chose not to participate in stool collection. After completing a set of three preliminary breath hydrogen tests, each participating responder was asked to refrain from taking oleic acid for two days in order to measure off-treatment stool output for a 24-hour period. Patients were issued a stool pattern record form and a stool collection container with graduated volume markings to record the frequency and volume of bowel movements. After two days without oleic acid, each patient took 3.2 g of oleic acid mixed with 25 mL of Ensure emulsion three times a day, 30 minutes before breakfast, lunch and dinner. After taking oleic acid for two days, patients recorded stool output for another 24-hour period. With this oleic acid emulsion treatment, stool frequency decreased from 6.9±0.8 to 5.4±0.9 bowel movements per 24-hour period (p<0.05), and stool volume decreased from 1829.0±368.6 to 1322.5±256.9 per 24-hour period (p<0.05).
The patient was a person with a history of adolescent-onset, persistent diarrhea. […] They presented with complaints of excessive gas, postprandial bloating, diarrhea and urgency, and 3 to 7 liquid bowel movements per day. Their upper gut transit times were (min) 30 (0 g oleic acid), 117 (1.6 g oleic acid) and 101 (3.2 g oleic acid).

upper gut transit [4] = assay: Upper gut transit time by lactulose breath hydrogen test after oleate or oleic acid; format: in vivo, human; settings: for upper gut transit time: case, diarrhea-predominant IBS
Description: In a preliminary study, five patients with persistent diarrhea for 3 to 22 months, (one each due to vagal denervation, ileal resection for Crohn's disease, and vagotomy and antrectomy, and two due to idiopathic causes) were studied. […] This test relies on the metabolism of certain carbohydrate materials (e.g. lactulose) by the microbial flora within the caecum. By generating gas which can be detected in the expired air, it is possible to make some estimation about the initial arrival of the administered material within the colon.
Each patient received orally in random order, 0, 1.6 or 3.2 g of sodium oleate in 25 mL Ensure (Ross), followed by 100 mL water. Thirty minutes after each dose of oleate, patients received 10 g lactulose orally, followed by 25 mL water. Breath samples were collected in commercially available breath testing bags (Quintron, Menomonee Falls, Wis.) every 10-15 minutes, and the hydrogen content of the samples was measured using a breath analyzer (Microlyzer Model 12, Quintron Instruments, Menomonee Falls, Wis.), calibrated against gas samples of known hydrogen concentration. With a syringe, a 40-mL sample of the expired breath was withdrawn from the collection bag and analyzed immediately for hydrogen concentration (ppm). The hydrogen concentration value from each sample was plotted against time. Upper gut transit time was defined as the time in minutes from ingestion of lactulose (t0) until a rise of H2 of >10 ppm. Data were further analyzed using 1-way repeated measures analysis of variance (ANOVA)(See Table 4).
The effect of an active lipid on transit time was determined in 8 normal human subjects (1 male and 7 females with a mean age of 35±2.6 years [SE]) and 45 patients (20 males and 25 females with a mean age of 49.1±2.5 [SE], age range from 18 to 90 years) with chronic diarrhea (i.e., continuous diarrhea for more than two months) associated with a wide variety of diagnoses and conditions (e.g., Crohn's disease; irritable bowel syndrome; short bowel syndrome; Indiana pouch; AIDS; ulcerative colitis; vagotomy; antrectomy; ileostomy; partial and complete colectomy; colon cancer; diabetes mellitus type 1; pancreatic insufficiency; radiation enteropathy; esophagectomy/gastric pull-up; total and subtotal gastrectomy; gastrojejunostomy), made by referring gastroenterologists. The method was the same as described above, except oleic acid (Penta Manufacturing, Livingston, N.J.) replaced sodium oleate in 50 mL of Ensure emulsion. All subjects refrained from taking antibiotics for at least two weeks before each testing date and during stool measurement periods. Patients were also instructed to refrain from anti-diarrheal drugs, laxatives, somatostatin analogues or anticholinergics for at least 48 hours before each test. In both the normal and patient groups, there was a significant slowing of upper gut transit time in response to oleic acid, as summarized in Table 5 below (p<0.001).

intestinal transit = assay: Intestinal transit in multi-fistulated dogs, cumulative % recovery of 99mTc-DTPA; format: in vivo, dog
Description: The experiments described below are based on a previously described chronic multi-fistulated dog model, employing surgically fistulated male or female mongrel dogs weighing about 25 kg each. (Lin, H. C. et al., Inhibition of gastric emptying by glucose depends on length of intestine exposed to nutrient, Am. J. Physiol. 256:G404-G411 [1989]). The small intestines of the dogs were each about 300 cm long from the pylorus to the ileal-cecal valve. The duodenal fistula was situated 15 cm from the pylorus; the mid-gut fistula was situated 160 cm from the pylorus. Occluding Foley catheters (balloon catheters that are inflated to produce a water-tight seal with the lumenal surface) were placed into the distal limb of a duodenal fistula and a mid-gut fistula, fat or other test agents were administered lumenally to the thus compartmentalized Aproximal≅ section of the gut, i.e., between the fistulas, or to the compartmentalized Adistal≅ section of the gut, i.e., beyond the mid-gut fistula. Perfusate was pumped into a test section through the catheter at a rate of 2 mL/minute. Test agents were administered along with buffer perfusate, but some test agents were administered intravenously, where specifically noted.
Intestinal transit measurements were made by tracking the movement of a liquid marker across the approximately 150 cm intestinal test segment by delivering about 20 μCi ^99mTc chelated to diethyltriamine pentaacetic acid (DTPA)(Cunningham, K. M. et al., Use of technicium-99m (V)thiocyanate to measure gastric emptying of fat, J. Nucl. Med. 32:878-881 [1991]) as a bolus into the test segment after 60 minutes of a 90-minute perfusion. The output from the mid-gut fistula was collected every 5 min thereafter for 30 minutes, which period is illustrated in FIGS. 9-23. Using a matched dose of ^99mTc to represent the original radioactivity (Johansson, C., Studies of gastrointestinal interactions, Scand. J. Gastroenterol. 9(Suppl 28):1-60 [1974]; Zierler, K., A simplified explanation of the theory of indicator dilution for measurement of fluid flow and volume and other distributive phenomena, Bull. John Hopkins 103:199-217 [1958]), the radioactivity delivered into the animal as well as the radioactivity of the recovered fistula output were all measured using a gamma well counter. After correcting all counts to time zero, intestinal transit was calculated as the cumulative percent recovery of the delivered ^99mTc-DTPA. This method has been well validated over the years and appreciated for its advantage of minimal inadvertent marker loss. […] There was a very high level of marker recovery, with 90% of the marker recovered by 30 minutes and 98% of the marker recovered by 45 minutes.

ileal brake = settings: rats, subcutaneous administration; Brown et al. 1993; cited from earlier work
SIBO [5] = assay: Case: autism with bowel symptoms, Augmentin; format: in vivo, human; settings: one patient
SIBO [6] = assay: Comparison of antibiotic regimes for eradicating SIBO, follow-up lactulose breath hydrogen test (LBHT); format: in vivo, human; settings: follow-up LBHT
Experimental: Subjects were tested after an overnight fast. […] Each breath sample was then analyzed for hydrogen content with a gas chromatograph (Quintron Model DP, Quintron Instrument Co., Division of E.F. Brewer Co, Menomonee Falls, Wis. 53051), standardized using a QuinGas standard as instructed by the manufacturer. Hydrogen peaks were plotted before and after an antimicrobial treatment regimen for comparison. The normal range for the second hydrogen peak was 0 to 20 ppm. Subjects referred to the Cedars-Sinai GI Motility Program for a lactulose breath hydrogen test (LBHT) to assess SIBO were entered into a database. Those that tested positive for SIBO were given antibiotic treatment by their referring physician and in some cases, returned for a follow-up LBHT to assess eradication of SIBO. During the follow-up LBHT, subjects were asked which antibiotic they were given to treat their SIBO. The eradication rate of each antibiotic was evaluated. Of the 771 subjects in the database, 561 (73%) tested positive for SIBO. […] (See Table 1 below). […] None of the commonly used antibiotics was universally successful in eradicating overgrowth.

## CN(C)CCC=C1c2ccccc2CCc2ccccc21 [Elavil, amitriptyline]
[1]; first subject, Colpermin capsules and Elavil (5 mg at night) together
  SIBO-related hyperalgesic symptoms: alleviated

## COc1cc(N)c(Cl)cc1C(=O)NC1CCN(CCCOc2ccc(F)cc2)CC1OC (stereo not drawn) [cisapride]
[1]; second subject, combined antibiotic, lavage with Go-Lytely and cisapride (10 mg tid)
  eradication of SIBO: eradicated

## CCCCCCCC/C=C\CCCCCCCC(=O)O [oleic acid]
Upper gut transit [2]; IBD patients (n=18)
  mean transit time: 114.6 ± 16.0 min
Upper gut transit [2]; normal subjects (n=5)
  mean transit time: 136.0 ± 15.4 min
[3]; 18 responders, 3.2 g in 25 mL Ensure three times a day, off-treatment 6.9±0.8
  stool frequency, bowel movements per 24-hour period: 5.4±0.9
[3]; 18 responders, on treatment, off-treatment 1829.0±368.6
  stool volume per 24-hour period: 1322.5±256.9
[3]; case, diarrhea-predominant IBS
  symptoms of gaseousness, bloating and rectal urgency: complete relief
[3]; case, diarrhea-predominant IBS, continuing treatment
  bowel frequency: single, solid bowel movement per day
[3]; only adverse effect reported by any patient
  adverse effect reported: slight and transient burning sensation in the mouth or throat
Upper gut transit [4]; 3.2 g oleic acid, out of the original 45 patients
  responders (greater than 100% increase in baseline transit time): 36
Upper gut transit [4]; Normal subjects (8), 1.6 g oleic acid in 50 mL Ensure
  Transit time (mean ± SE): 116 ± 11.1 min
Upper gut transit [4]; Normal subjects (8), 3.2 g oleic acid
  Transit time (mean ± SE): 140 ± 11.5 min
Upper gut transit [4]; Patients with chronic diarrhea (45), 1.6 g oleic acid
  Transit time (mean ± SE): 57.2 ± 4.5 min
Upper gut transit [4]; Patients with chronic diarrhea (45), 3.2 g oleic acid
  Transit time (mean ± SE): 83.3 ± 5.2 min
Upper gut transit [4]; 1.6 g oleic acid
  upper gut transit time: 117 min
Upper gut transit [4]; 3.2 g oleic acid
  upper gut transit time: 101 min

## Cc1nccn1CC1CCc2c(c3ccccc3n2C)C1=O (stereo not drawn) [ondansetron]
Intestinal transit; Buffer + NE + Ond perfused lumenally 0.7 mg/kg/h
  Transit Across Proximal Gut (Cumulative % Marker Recovered): 63.0 ± 4.4^b %
Intestinal transit; IV PYY + ondansetron 0.7 mg/kg/h in proximal gut
  marker recovery: 78.3±4.8%
Intestinal transit; IV PYY + ondansetron in distal gut
  marker recovery: 12.9±12.9%
Intestinal transit; distal gut 5-HT + ondansetron 0.7 mg/kg bolus in distal gut
  marker recovery: 79.5±2.4%
Intestinal transit; distal gut 5-HT + ondansetron 0.7 mg/kg bolus in proximal gut
  marker recovery: 73.8±9.5%
Intestinal transit; ileal brake + 6.25 mg ondansetron bolus, proximal gut
  marker recovery: 35.4%
Intestinal transit; ileal brake + 12.5 mg ondansetron bolus, proximal gut
  marker recovery: 55.8%
Intestinal transit; ileal brake + 25 mg ondansetron bolus, proximal gut
  marker recovery: 77.6%
Intestinal transit; ileal brake + intravenous ondansetron 0.15 mg/kg/1.5 h, n=2
  marker recovery: 13±2.0%
Intestinal transit; ileal brake + lumenal ondansetron 0.7 mg/kg/h in proximal gut, n=2
  marker recovery: 78±2.4%
Intestinal transit; ileal brake + ondansetron in distal gut, n=4
  marker recovery: 22.8±2.6%
Intestinal transit; ileal brake + ondansetron in proximal gut, n=4
  marker recovery: 68.5±2.7%
Intestinal transit; intravenous norepinephrine + ondansetron 0.7 mg/kg/h in proximal gut
  marker recovery: 63.4%
Intestinal transit; lumenal buffer + lumenal ondansetron, Buffer-NS 96.0±4.0%
  marker recovery: 57.9±15.9%
Intestinal transit; lumenal oleate + lumenal ondansetron 0.7 mg/kg bolus, proximal gut
  marker recovery: 73.7±10.6%
Ileal brake
  ileal brake induced by ileal infusion of lipid: abolished the ileal brake
  intestinal transit of a baked bean meal: delayed

## Augmentin
SIBO [5]
  concentration and behavior: some positive concentration and behavioral changes
SIBO [5]; 500 mg twice a day for ten days
  bowel habits: substantial improvement
SIBO [6]
  % Patients with SIBO Eradicated: 50%
